Laboratory results published in patent publication US20210282399A1, “FUNGICIDAL COMPOSITION” (priority 2018, published 2021).
Where “and” joins values, the source holds several entries; their conditions need not be identical. Identical values can stand only once.

Columns and labels:
Phakopsora pachyrhizi [1] = experiment: Flow cytometric assay of fungicide efficacy on Phakopsora pachyrhizi urediniospores (healthy vs dead spores, metabolic activity); Wadley and Colby evaluation; format: cell-based; settings: for EC50 (Mean) / EC50: based on perturbation of the metabolic activity
Excerpt: in which E represents the expected effect, e.g. percentage of pest control, for the combination of the three active ingredient at defined doses (for example equal to x, y and z respectively), X is the effect, e.g. percentage of pest control, observed for compound (I) at a defined dose (equal to x), Y is the effect, e.g. percentage of pest control, observed for compound (II) at a defined dose (equal to y), Z is the effect, e.g. percentage of pest control, observed for compound (III) at a defined dose (equal to z). When the effect, e.g. percentage of pest control, observed for the combination is greater than the expected effect, there is a synergistic effect. The ratio of observed action (Eobs) and expected action (Eexp), i.e. Eobs/Eexp expresses the factor of interaction level (R) which may be interpreted in accordance with Table 1a below.
In the Wadley method, synergistic activity is determined from dose response curves. With this method, the efficacy of the active ingredient (“a.i.”) is determined by comparing the degree of fungal attack on treated plants with that on untreated, similarly inoculated and incubated check plants. Each a.i. is generally tested at multiple. (e.g., 6) concentrations, and dose response curves are generated. The dose response curves are used to establish the EC50 (i.e., the effective concentration of a.i. providing 50% disease control) of the individual compounds as well as of the combinations (EC50Observed). The experimentally found values of the mixture at a given weight ratio are compared with the values that would have been found were only a complementary efficacy of the components was present as follows:
ECtheo=(a+b)/[(a/ECA)+(b/ECB)]
ECtheo=(a+b+c)/[(a/ECA)+(b/ECB+(c/ECC)]
The ratio EC50 (A+B)Theo/EC50(A+B)observed expresses the factor of interaction level (R) which may be interpreted in accordance with Table 1b below.
Soybean rust, caused by Phakopsora pachyrhizi, is one of the most important foliar diseases of soybean worldwide. Seed of soybean were sown in pots in a loam-vermiculite soil mix and placed inside a growth chamber maintained at 18° C./26° C. night/day and 60 to 70% RH with 16 h of light for 3 weeks.
First leaves were harvested and placed in Petri dishes on 1% water agar. A spore suspension (1×10^5 spores/ml of water) were prepared from infected leaf samples and was sprayed on leaf pieces using an atomizer attached to an air compressor. Petri dishes containing leaf pieces were incubated inside a growth chamber maintained at 18° C./26° C. night/day and 60 to 70% RH with 16 h of light during 2-3 weeks. Urediniospores (1×10^5 spores/ml of water) were harvested from infected leaf samples and equal volumes of spore suspension and fungicide diluted in water were mixed in 96 well plate. Spores are stained by two fluorescent dyes, one which stained dead spores and a one for which intensity of staining is directly correlated to metabolic activity.
Flow cytometric analyses were performed on a CyFlow Cube 8 equipped with an autoloading station (Sysmex Partec GmbH, Gorlittz, Germany). The fluorescences were collected for 2000 to 3000 spores per well and were used to discriminate: (i) healthy spores and (ii) dead spores. The fungicide efficacies were then calculated from the percentage of healthy spores in control condition and in treated condition.
The EC50 is based the perturbation of the metabolic activity.

Phakopsora pachyrhizi [2] = experiment: Field fungicide tests for Asian soybean rust on soybean, Brazil; format: in vivo; settings: soybean field plots, three foliar applications; fenpropidin 75-300 g a.i./ha; FIGS. 1 and 2
Method: The experiments for fungicide tests for Asian soybean rust (Phakopsora pachyrhizi) were carried out at Experimental Stations in different regions of Brazil. Each plot consisted of at least 15.0 m^2 (3.0 m×5.0 m). The experimental design was a randomized block design with four replicates, using soybean varieties adapted to each region. Three applications of foliar treatments were carried out at 10 to 15 day intervals, depending on the soybean rust pressure at each site. The applications were made with backpack sprayer pressurized with CO^2 set to apply 150 L. ha-1 of spray volume and 0.460 L/min per nozzle. […] The applications of the treatments were performed when the soybean was in stages 60 (First flowers opened (sporadically in population), 72 (About 20% of pods have reached final length (15-20 mm)) and 79 (Approx. pods have reached final length (15-20 mm), seeds filling the cavity of the majority of pods) of the BBCH international scale, respectively. The results were evaluated prior to the application of the treatments, and at 7, 14 and 21, 28 and 35 days after the first application through the visual evaluation of the percentage of disease severity per plot. The harvest was evaluated at a minimum of 5.0 m^2 per plot, and the data were transformed into kg·ha-1.

Question: How did the Efficacy % (Phakopsora pachyrhizi [1]; Desthio-prothioconazole dose 0.004544 ppm) turn out when `OC(Cc1ccccc1Cl)(Cn1cncn1)C1(Cl)CC1` (stereo not shown) [Desthio-prothiconazole, Desthio-prothioconazole] was run?
Answer: Its Efficacy % is 38.49%.

Question: What about the Efficacy % (Phakopsora pachyrhizi [1]; Desthio-prothioconazole dose 0.02272 ppm) of the same compound?
Answer: The Efficacy % was 49.44%.

Question: Which Efficacy % (Phakopsora pachyrhizi [1]; Mancozeb dose 0.0128 ppm) does the source give for Mancozeb [Formulated Mancozeb] here?
Answer: The Efficacy % was 33.27%.

Question: What about the Efficacy % (Phakopsora pachyrhizi [1]; Mancozeb dose 0.064 ppm) of the same compound?
Answer: Its Efficacy % is 50.68%.

Question: What about the “EC50 (Mean)” value (Phakopsora pachyrhizi [1]; mean of Exp 1-3) of the same compound?
Answer: The value was <>0.042 ppm.

Question: What about the EC50 (Phakopsora pachyrhizi [1]; single experiments Exp 1-3) of the same compound?
Answer: Its EC50 is <>0.037 ppm and <>0.058 ppm and <>0.032 ppm.

Question: And the “% of efficiency, Mean” value (Phakopsora pachyrhizi [1]; dose 0.00256 ppm, mean of experiments)?
Answer: Its value is 11.22%.

Question: And the “% of efficiency, Mean” value (Phakopsora pachyrhizi [1]; dose 0.0128 ppm, mean of experiments)?
Answer: The value was 33.27%.

Question: And the “% of efficiency” value (Phakopsora pachyrhizi [1]; dose 0.0128 ppm, single experiments)?
Answer: The value was 39.9% and 26.2% and 33.7%.

Question: And the “% of efficiency, Mean” value (Phakopsora pachyrhizi [1]; dose 0.064 ppm, mean of experiments)?
Answer: Its value is 50.88%.

Question: And the “% of efficiency” value (Phakopsora pachyrhizi [1]; dose 0.064 ppm, single experiments)?
Answer: Its value is 59.2% and 43.2% and 49.7%.

Question: And the “% of efficiency, Mean” value (Phakopsora pachyrhizi [1]; dose 0.32 ppm, mean of experiments)?
Answer: The value was 88.10%.

Question: And the “% of efficiency” value (Phakopsora pachyrhizi [1]; dose 0.32 ppm, single experiments)?
Answer: The value was 80.8% and 94.2% and 89.3%.

Question: What about the “% of efficiency, Mean” value (Phakopsora pachyrhizi [1]; dose 1.6 ppm, mean of experiments) of the same compound?
Answer: The value was 95.20%.

Question: And the “% of efficiency” value (Phakopsora pachyrhizi [1]; dose 1.6 ppm, single experiments)?
Answer: Its value is 93.6% and 98.7% and 93.2%.

Question: What about the “% of efficiency, Mean” value (Phakopsora pachyrhizi [1]; dose 8 ppm, mean of experiments) of the same compound?
Answer: Its value is 94.99%.

Question: And the “% of efficiency” value (Phakopsora pachyrhizi [1]; dose 8 ppm, single experiments)?
Answer: Its value is 89.4% and 98.9% and 96.6%.

Question: What about the “% of efficiency, Mean” value (Phakopsora pachyrhizi [1]; dose 40 ppm, mean of experiments) of the same compound?
Answer: Its value is 96.58%.

Question: What about the “% of efficiency” value (Phakopsora pachyrhizi [1]; dose 40 ppm, single experiments) of the same compound?
Answer: Its value is 92.3% and 99.5% and 97.8%.

Question: For `Cn1cc(C(=O)Nc2ccccc2-c2cc(F)c(F)c(F)c2)c(C(F)F)n1` [Technical Fluxapyroxad, Fluxapyroxad], which Efficacy % (Phakopsora pachyrhizi [1]; Fluxapyroxad dose 0.000576 ppm) is on record?
Answer: Its Efficacy % is 15.24%.

Question: What about the Efficacy % (Phakopsora pachyrhizi [1]; Fluxapyroxad dose 0.00288 ppm) of the same compound?
Answer: Its Efficacy % is 24.72%.

Question: What about the “EC50 (Mean)” value (Phakopsora pachyrhizi [1]; mean of Exp 1-3) of the same compound?
Answer: Its value is <>0.202 ppm.

Question: What about the EC50 (Phakopsora pachyrhizi [1]; single experiments Exp 1-3) of the same compound?
Answer: The EC50 was <>0.190 ppm and <>0.214 ppm and <>0.202 ppm.

Question: What about the “% of efficiency, Mean” value (Phakopsora pachyrhizi [1]; dose 0.0001152 ppm, mean of Exp 1-3) of the same compound?
Answer: The value was 19.26%.

Question: And the “% of efficiency, Mean” value (Phakopsora pachyrhizi [1]; dose 0.000576 ppm, mean of Exp 1-3)?
Answer: The value was 15.24%.

Question: What about the “% of efficiency, Mean” value (Phakopsora pachyrhizi [1]; dose 0.00288 ppm, mean of Exp 1-3) of the same compound?
Answer: Its value is 24.72%.

Question: What about the “% of efficiency” value (Phakopsora pachyrhizi [1]; dose 0.00288 ppm, single experiments Exp 1-3) of the same compound?
Answer: Its value is 18.6% and 37.0%.

Question: What about the “% of efficiency, Mean” value (Phakopsora pachyrhizi [1]; dose 0.0144 ppm, mean of Exp 1-3) of the same compound?
Answer: The value was 18.40%.

Question: What about the “% of efficiency, Mean” value (Phakopsora pachyrhizi [1]; dose 0.072 ppm, mean of Exp 1-3) of the same compound?
Answer: The value was 29.12%.

Question: What about the “% of efficiency” value (Phakopsora pachyrhizi [1]; dose 0.072 ppm, single experiments Exp 1-3) of the same compound?
Answer: The value was 28.8% and 28.6% and 29.9%.

Question: What about the “% of efficiency, Mean” value (Phakopsora pachyrhizi [1]; dose 0.36 ppm, mean of Exp 1-3) of the same compound?
Answer: The value was 59.74%.

Question: And the “% of efficiency” value (Phakopsora pachyrhizi [1]; dose 0.36 ppm, single experiments Exp 1-3)?
Answer: Its value is 61.7% and 52.3% and 65.2%.

Question: And the “% of efficiency, Mean” value (Phakopsora pachyrhizi [1]; dose 1.8 ppm, mean of Exp 1-3)?
Answer: Its value is 80.82%.

Question: What about the “% of efficiency” value (Phakopsora pachyrhizi [1]; dose 1.8 ppm, single experiments Exp 1-3) of the same compound?
Answer: Its value is 88.5% and 83.4% and 70.6%.

Question: What does the source list for `CC(Cc1ccc(C(C)(C)C)cc1)CN1CCCCC1` (racemic) [Technical Fenpropidin, (±)-1-[3-[4-(1,1-dimethylethyl)phenyl]-2-methylpropyl]piperidine]?
Answer: Efficacy % (Phakopsora pachyrhizi [1]; Fenpropidin dose 0.002304 ppm): 10.17%; Efficacy % (Phakopsora pachyrhizi [1]; Fenpropidin dose 0.01152 ppm): 18.55%; EC50 (Mean) (Phakopsora pachyrhizi [1]; mean of Exp 1-3): >7.2 ppm; EC50 (Phakopsora pachyrhizi [1]; single experiments Exp 1-3): >7.2 ppm; % of efficiency, Mean (Phakopsora pachyrhizi [1]; dose 0.0004608 ppm, mean of Exp 1-3): 15.65%; % of efficiency, Mean (Phakopsora pachyrhizi [1]; dose 0.002304 ppm, mean of Exp 1-3): 10.17%; % of efficiency, Mean (Phakopsora pachyrhizi [1]; dose 0.01152 ppm, mean of Exp 1-3): 18.55%; % of efficiency, Mean (Phakopsora pachyrhizi [1]; dose 0.0576 ppm, mean of Exp 1-3): 12.90%; % of efficiency (Phakopsora pachyrhizi [1]; dose 0.0576 ppm, single experiments Exp 1-3): 10.9% and 12.4% and 15.5%; % of efficiency, Mean (Phakopsora pachyrhizi [1]; dose 0.288 ppm, mean of Exp 1-3): 13.31%; % of efficiency (Phakopsora pachyrhizi [1]; dose 0.288 ppm, single experiments Exp 1-3): 15.4% and 9.9% and 14.6%; % of efficiency, Mean (Phakopsora pachyrhizi [1]; dose 1.44 ppm, mean of Exp 1-3): 16.42%; % of efficiency, Mean (Phakopsora pachyrhizi [1]; dose 7.2 ppm, mean of Exp 1-3): 16.74%; EC50 (in 2018) (Phakopsora pachyrhizi [1]; value in brackets, 'in 2018'): (88.916 ppm in 2018); effectiveness against Phakopsora pachyrhizi (Phakopsora pachyrhizi [2]): effective
